Data published in patent publication US20230279000A1, “PYRIDOPYRIMIDINE DERIVATIVES USEFUL IN MODULATION OF AHR SIGNALLING” (JAGUAHR THERAPEUTICS PTE LTD, priority 2020, published 2023).
Structures can show the parent of a compound that is named as a salt.

What was measured:
AhR [1] = target: T1, AhR (Homo sapiens, UniProt P35869); test: AhR antagonism in U937 cells (Promega P450-Glo assay); type: cell-based; conditions: inhibition of 4.5 nM VAF347 agonist response, CYP1A1 activity (Luciferin-CEE) after 24 hrs, arithmetic mean of two or more tests, read-out: U937 Assay (pIC50) (converted)
T1 construct: PBMCs were isolated from human peripheral blood using Lymphoprep; endogenous in cells
T1 sequence (P35869 11-848): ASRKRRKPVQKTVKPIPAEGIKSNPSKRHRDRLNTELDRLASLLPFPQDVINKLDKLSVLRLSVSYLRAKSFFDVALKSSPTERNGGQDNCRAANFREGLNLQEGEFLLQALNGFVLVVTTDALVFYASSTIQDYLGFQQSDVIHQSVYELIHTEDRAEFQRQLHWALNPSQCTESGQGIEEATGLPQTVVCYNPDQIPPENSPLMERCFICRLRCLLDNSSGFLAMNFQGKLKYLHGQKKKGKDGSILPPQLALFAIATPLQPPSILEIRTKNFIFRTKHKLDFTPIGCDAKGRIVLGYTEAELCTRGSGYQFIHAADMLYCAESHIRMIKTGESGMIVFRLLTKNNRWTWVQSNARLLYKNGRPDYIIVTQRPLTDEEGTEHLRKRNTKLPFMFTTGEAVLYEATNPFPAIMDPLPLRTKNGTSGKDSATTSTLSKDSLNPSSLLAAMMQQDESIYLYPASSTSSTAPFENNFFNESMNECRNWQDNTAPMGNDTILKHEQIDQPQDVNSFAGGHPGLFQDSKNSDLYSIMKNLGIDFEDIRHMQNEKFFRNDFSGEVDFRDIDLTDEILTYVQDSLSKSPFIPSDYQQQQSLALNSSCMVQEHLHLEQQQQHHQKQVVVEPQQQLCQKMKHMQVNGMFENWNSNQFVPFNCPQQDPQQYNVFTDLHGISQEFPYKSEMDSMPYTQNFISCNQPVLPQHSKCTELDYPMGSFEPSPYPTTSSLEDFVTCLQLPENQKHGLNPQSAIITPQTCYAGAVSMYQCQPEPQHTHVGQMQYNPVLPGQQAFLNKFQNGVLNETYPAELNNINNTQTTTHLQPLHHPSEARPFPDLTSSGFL
Protocol: (§1) Examples were tested in selected biological assays two or more times. Data are reported as the arithmetic mean of the pIC50 (-log10IC50) values, where IC50 is defined as the concentration of compound producing a 50% inhibition of the agonist response. In the case of the U937 assay, VAF347 was used as the agonist; in the peripheral blood mononuclear cell (PBMC) assay the effects of the test compounds are assessed against endogenously produced AhR agonists generated following PBMC activation.
In Vitro Assay 1: AhR Antagonism in U937 Cells (Promega P450-Glo™ Assay)
AhR antagonism was assessed in U937 cells (myeloid lineage cell line derived from a human histiocytic lymphoma). Ligand binds the AhR in the cytoplasm, and the AhR-ligand complex translocates to the nucleus and forms a heterodimer with AhR nuclear translocator (Arnt). This complex binds the xenobiotic response element (XRE) in the 5′ upstream region of the CYP1A1 promoter, enhancing CYP1A1 expression. CYP1A1 activity is subsequently determined by assessing the conversion of Luciferin-CEE to luciferin, which in turn reacts with luciferase to produce light. The amount of light produced is directly proportional to cytochrome P450 activity.
U937 cells in Ultraculture serum free media (Lonza) were plated at 100,000 cells per well in a round bottom 96 well tissue culture plate. Seven concentrations of test compound (final [DMSO] 1%) were added and incubated for 10 minutes before the addition of 4.5 nM VAF347. The plates were then placed in an incubator at 37° C., ≥ 85% humidity, 5% CO2 for 24 hrs. After aspiration of the supernatant the CYP1A1 substrate Luciferin-CEE ([Final] 83 µM) was added and incubated for 3 hrs before the reaction was stopped by adding luciferin detection reagent and luminescence was read after 20 minutes.

AhR [2] = target: T1, AhR; test: AhR antagonism in human PBMCs - inhibition of interleukin-22 (IL-22) release; type: cell-based; conditions: human PBMCs activated with CD3/CD28 agonist; IL-22 release after 72 hrs, against endogenously produced AhR agonists; arithmetic mean of two or more tests; read-out: PBMC Assay (pIC50) (converted)
Protocol: as §1
In Vitro Assay 2: AhR Antagonism in Human Peripheral Blood Mononuclear Cells (PBMCS) -Inhibition of Interleukin-22 (IL-22) Release
PBMCs were isolated from human peripheral blood using Lymphoprep™ and diluted to 1 × 10^6 cells per ml in RPMI media containing 10% foetal bovine serum, 1% penicillin-streptomycin and 1% non-essential amino acids. PBMCs were subsequently activated with 1 µl per 100,000 cells of a CD3/CD28 agonist mixture (human T Cell TransAct™(Miltenyi Biotec)) and then plated at 100,000 cells per well in a round bottom 96 well tissue culture plate. One hour after stimulation seven concentrations of each test compound or vehicle (final [DMSO] 0.2%) were added. The plates were then placed in an incubator at 37° C., ≥ 85% humidity, 5% CO2 for 72 hrs before the media was removed and stored at -20° C. until cytokine analysis. IL-22 was measured using human IL-22 DuoSet ELISA (R&D systems) according to the manufacturer’s instructions.

COc1ccc2c(CCNc3nc(-c4cncc(F)c4)nc4c3CCNC4)c[nH]c2c1 [Example 1, 2-(5-fluoropyridin-3-yl)-N-[2-(6-methoxy-1H-indol-3-yl)ethyl]-5H,6H,7H,8H-pyrido[3,4-d]pyrimidin-4-amine]
IC50 (AhR [1]): 126 nM
IC50 (AhR [2]): 126 nM

COc1ccc2[nH]c(C)c(CCNc3nc(-c4cncc(F)c4)nc4c3CCNC4)c2c1 [Example 14, 2-(5-Fluoropyridin-3-yl)-4-{[2-(5-Methoxy-2-Methyl-1H-Indol-3-yl)Ethyl]Amino}-5H,6H,7H,8H-Pyrido[3,4-d]Pyrimidin-7-ium Chloride]
IC50 (AhR [1]): 100 nM
IC50 (AhR [2]): 631 nM

COc1ccc2c(CCOc3nc(-c4cncc(F)c4)nc4c3CCNC4)c[nH]c2c1 [Example 17, 3-(2-{[2-(5-Fluoropyridin-3-yl)-5H,6H,7H,8H-Pyrido[3,4-d]Pyrimidin-4-yl]Oxy}Ethyl)-6-Methoxy-1H-Indole Hydrochloride]
IC50 (AhR [1]): 50.1 nM
IC50 (AhR [2]): 25.1 nM

FC(F)(F)c1cncc(-c2nc3c(c(NCCc4c[nH]c5ccccc45)n2)CCNC3)c1 [Example 10, N-[2-(1H-indol-3-yl)ethyl]-2-[5-(trifluoromethyl)pyridin-3-yl]-5H,6H,7H,8H-pyrido[3,4-d]pyrimidin-4-amine]
IC50 (AhR [1]): 25.1 nM
IC50 (AhR [2]): 794 nM

COc1ccc2c(CCNc3nc(-c4cncc(F)c4)nc4c3CNC4)c[nH]c2c1 [Example 5, 2-(5-fluoropyridin-3-yl)-N-[2-(6-methoxy-1H-indol-3-yl)ethyl]-5H,6H,7H-pyrrolo[3,4-d]pyrimidin-4-amine]
IC50 (AhR [1]): 200 nM
IC50 (AhR [2]): 398 nM

CCN1CCc2nc(-c3cncc(F)c3)nc(NCCc3c[nH]c4cc(OC)ccc34)c2CC1 [Example 15, 7-ethyl-2-(5-fluoropyridin-3-yl)-N-[2-(6-methoxy-1H-indol-3-yl)ethyl]-5H,6H,7H,8H,9H-pyrimido[4,5-d]azepin-4-amine]
IC50 (AhR [1]): 158 nM
IC50 (AhR [2]): 631 nM

COc1cncc(-c2nc3c(c(NCCc4c[nH]c5ccccc45)n2)CCNC3)c1 [Example 9, N-[2-(1H-indol-3-yl)ethyl]-2-(5-methoxypyridin-3-yl)-5H,6H,7H,8H-pyrido[3,4-d]pyrimidin-4-amine]
IC50 (AhR [1]): 20 nM
IC50 (AhR [2]): 794 nM

COc1ccc2c(CCNc3nc(-c4cncc(F)c4)nc4c3CCNCC4)c[nH]c2c1 [Example 16, 2-(5-fluoropyridin-3-yl)-N-[2-(6-methoxy-1H-indol-3-yl)ethyl]-5H,6H,7H,8H,9H-pyrimido[4,5-d]azepin-4-amine]
IC50 (AhR [1]): 316 nM
IC50 (AhR [2]): 200 nM

Fc1cncc(-c2nc3c(c(NCCc4c(C(F)(F)F)[nH]c5ccccc45)n2)CCNC3)c1 [Example 18, 2-(5-Fluoropyridin-3-yl)-4-({2-[2-(Trifluoromethyl)-1H-Indol-3-yl]Ethyl}Amino)-5H,6H,7H,8H-Pyrido[3,4-d]Pyrimidin-7-ium Chloride]
IC50 (AhR [1]): 20 nM
IC50 (AhR [2]): 316 nM
